From ChEMBL document CHEMBL5370557, “Structure-based discovery of IHMT-IDH1-053 as a potent irreversible IDH1 mutant selective inhibitor” (Eur J Med Chem, 2023)
pIC50, pKi: −log10 of the molar value. Each block holds one molecule with its values, some of them ahead of it. The source made the active and inactive calls. The rule behind the calls is not given here.

How the values were obtained:
[1] = biological target: T1, Isocitrate dehydrogenase [NADP] cytoplasmic (Homo sapiens, UniProt O75874, R132H); assay: Inhibition of IDH1 R132H mutant (unknown origin) expressed in Escherichia coli BL21 (DE3) assessed as NADPH consumption using alpha-KG as substrate measured after 60 mins
[2] = biological target: T1, Isocitrate dehydrogenase [NADP] cytoplasmic; assay: Inhibition of IDH1 R132H mutant (unknown origin) expressed in HEK293T cells assessed as inhibition of 2-HG generation measured after 48 hrs by LC-MS/MS analysis; format: cell-based
[3] = biological target: T1, Isocitrate dehydrogenase [NADP] cytoplasmic; assay: Reversible binding affinity to IDH1 R132H mutant (unknown origin) expressed in Escherichia coli BL21 (DE3) assessed as inhibition constant
[4] = system: Isocitrate dehydrogenase [NADP] cytoplasmic (Homo sapiens), O75874 [R132H]; assay: Binding affinity to IDH1 R132H mutant (unknown origin) expressed in Escherichia coli BL21 (DE3) assessed as inactivation constant
[5] = system: Isocitrate dehydrogenase [NADP] cytoplasmic (Homo sapiens), O75874 [R132H]; assay: Binding affinity to IDH1 R132H mutant (unknown origin) expressed in Escherichia coli BL21 (DE3) assessed as ratio of Kinact/Ki
[6] = biological target: Isocitrate dehydrogenase [NADP] cytoplasmic (Homo sapiens, UniProt O75874); assay: Inhibition of wild type IDH1 (unknown origin) expressed in Escherichia coli BL21 (DE3) assessed as NADPH consumption using alpha-KG as substrate measured after 60 mins
[7] = biological target: Isocitrate dehydrogenase [NADP] cytoplasmic (Homo sapiens, UniProt O75874, R132C); assay: Inhibition of IDH1 R132C mutant (unknown origin) expressed in Escherichia coli BL21 (DE3) assessed as NADPH consumption using alpha-KG as substrate measured after 60 mins
[8] = biological target: T2, Isocitrate dehydrogenase [NADP], mitochondrial (Homo sapiens, UniProt P48735); assay: Inhibition of wild type IDH2 (unknown origin) expressed in Escherichia coli BL21 (DE3) assessed as NADPH consumption using alpha-KG as substrate measured after 60 mins
T2 sequence (P48735 whole entry): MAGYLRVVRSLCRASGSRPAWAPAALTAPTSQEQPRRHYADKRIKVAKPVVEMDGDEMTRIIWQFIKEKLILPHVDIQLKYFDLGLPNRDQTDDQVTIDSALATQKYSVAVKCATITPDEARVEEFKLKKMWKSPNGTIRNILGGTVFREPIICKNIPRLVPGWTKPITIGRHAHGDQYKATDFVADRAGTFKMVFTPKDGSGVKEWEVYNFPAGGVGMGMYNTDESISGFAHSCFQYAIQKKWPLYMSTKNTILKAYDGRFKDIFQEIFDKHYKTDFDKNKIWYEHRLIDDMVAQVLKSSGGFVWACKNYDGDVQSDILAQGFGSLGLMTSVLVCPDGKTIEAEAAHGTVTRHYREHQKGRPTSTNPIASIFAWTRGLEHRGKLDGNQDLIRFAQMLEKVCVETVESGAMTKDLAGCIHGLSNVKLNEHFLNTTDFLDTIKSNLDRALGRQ

[9] = biological target: Isocitrate dehydrogenase [NADP], mitochondrial (Homo sapiens, UniProt P48735, R172K); assay: Inhibition of IDH2 R172K mutant (unknown origin) expressed in Escherichia coli BL21 (DE3) assessed as NADPH consumption using alpha-KG as substrate measured after 60 mins
[10] = biological target: Isocitrate dehydrogenase [NADP], mitochondrial (Homo sapiens, UniProt P48735, R140Q); assay: Inhibition of IDH2 R140Q mutant (unknown origin) expressed in Escherichia coli BL21 (DE3) assessed as NADPH consumption using alpha-KG as substrate measured after 60 mins
[11] = system: HT-1080; assay: Antiproliferative activity against human HT-1080 cells assessed as cell viability at 0.3 to 10 uM treated for 2 hrs followed by compound removal after 72 hrs by CellTiter-Glo assay; format: functional, cell-based; details: dose 0.3-10 µM
[12] = system: Acute myeloid leukemic cell; assay: Antiproliferative activity against human primary AML cells expressing IDH1-R132 mutant assessed as cell viability at 0.3 to 10 uM treated for 2 hrs followed by compound removal after 72 hrs by CellTiter-Glo assay; format: functional, cell-based; details: dose 0.3-10 µM
[13] = Half life in Sprague-Dawley rat at 1 mg/kg, iv measured upto 24 hrs by LC-MS/MS analysis; format: ADME, organism-based; details: in vivo
[14] = Tmax in Sprague-Dawley rat at 1 mg/kg, iv measured upto 24 hrs by LC-MS/MS analysis; format: ADME, organism-based; details: in vivo
[15] = Cmax in Sprague-Dawley rat at 1 mg/kg, iv measured upto 24 hrs by LC-MS/MS analysis; format: ADME, organism-based; parameters: dose 1 mg/kg, time < 24 hrs, route iv; details: in vivo
[16] = AUC (0 to t) in Sprague-Dawley rat at 1 mg/kg, iv measured upto 24 hrs by LC-MS/MS analysis; format: ADME, organism-based; parameters: dose 1 mg/kg, time < 24 hrs, route iv; details: in vivo
[17] = Apparent volume of distribution in Sprague-Dawley rat at 1 mg/kg, iv measured upto 24 hrs by LC-MS/MS analysis; format: ADME, organism-based; details: in vivo, read-out: Vz
[18] = Half life in Sprague-Dawley rat at 10 mg/kg, po measured upto 24 hrs by LC-MS/MS analysis; format: ADME, organism-based; details: in vivo
[19] = Tmax in Sprague-Dawley rat at 10 mg/kg, po measured upto 24 hrs by LC-MS/MS analysis; format: ADME, organism-based; details: in vivo
[20] = Cmax in Sprague-Dawley rat at 10 mg/kg, po measured upto 24 hrs by LC-MS/MS analysis; format: ADME, organism-based; parameters: time < 24 hrs, dose 10 mg/kg, route po; details: in vivo
[21] = AUC (0 to t) in Sprague-Dawley rat at 10 mg/kg, po measured upto 24 hrs by LC-MS/MS analysis; format: ADME, organism-based; parameters: time < 24 hrs, dose 10 mg/kg, route po; details: in vivo
[22] = Apparent volume of distribution in Sprague-Dawley rat at 10 mg/kg, po measured upto 24 hrs by LC-MS/MS analysis; format: ADME, organism-based; details: in vivo
[23] = Clearance in Sprague-Dawley rat at 10 mg/kg, po measured upto 24 hrs by LC-MS/MS analysis; format: ADME, organism-based; details: in vivo
[24] = Oral bioavailability in Sprague-Dawley rat at 10 mg/kg measured upto 24 hrs by LC-MS/MS analysis; format: ADME, organism-based; details: in vivo
[25] = In vivo inhibition of IDH1 mutant activity in tumor of human HT-1080 cells xenografted in Balb/c mouse model assessed as reduction in 2-HG level at […], ip single administration measured upto 2 hrs relative to control; format: functional

T1 sequence (O75874 2-414 R132H limits assumed): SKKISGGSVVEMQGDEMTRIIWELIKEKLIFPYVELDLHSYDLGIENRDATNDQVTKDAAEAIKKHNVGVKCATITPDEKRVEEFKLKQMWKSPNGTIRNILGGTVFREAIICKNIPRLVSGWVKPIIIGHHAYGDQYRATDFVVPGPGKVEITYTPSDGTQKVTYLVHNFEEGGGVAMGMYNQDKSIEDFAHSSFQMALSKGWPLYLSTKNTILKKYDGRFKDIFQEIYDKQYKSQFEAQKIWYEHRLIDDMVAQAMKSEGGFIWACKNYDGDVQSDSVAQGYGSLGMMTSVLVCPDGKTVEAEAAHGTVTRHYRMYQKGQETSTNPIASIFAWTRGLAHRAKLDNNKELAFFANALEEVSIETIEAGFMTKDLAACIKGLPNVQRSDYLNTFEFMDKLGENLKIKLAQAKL
Isocitrate dehydrogenase [NADP] cytoplasmic (Homo sapiens), O75874 [R132H], sequence (O75874 whole entry R132H): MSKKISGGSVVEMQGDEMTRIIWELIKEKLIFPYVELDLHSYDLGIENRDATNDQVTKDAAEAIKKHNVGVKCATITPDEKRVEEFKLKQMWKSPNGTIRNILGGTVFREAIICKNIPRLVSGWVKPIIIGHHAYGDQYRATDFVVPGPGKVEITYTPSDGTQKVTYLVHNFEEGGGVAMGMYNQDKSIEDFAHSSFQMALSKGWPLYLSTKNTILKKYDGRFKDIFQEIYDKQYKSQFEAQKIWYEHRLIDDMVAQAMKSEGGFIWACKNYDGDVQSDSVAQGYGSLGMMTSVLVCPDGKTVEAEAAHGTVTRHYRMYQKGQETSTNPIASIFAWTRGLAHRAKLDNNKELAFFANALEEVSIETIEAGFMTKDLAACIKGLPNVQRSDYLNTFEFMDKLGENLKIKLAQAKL
Isocitrate dehydrogenase [NADP], mitochondrial (Homo sapiens, UniProt P48735, R172K), sequence (P48735 40-452 R172K limits assumed): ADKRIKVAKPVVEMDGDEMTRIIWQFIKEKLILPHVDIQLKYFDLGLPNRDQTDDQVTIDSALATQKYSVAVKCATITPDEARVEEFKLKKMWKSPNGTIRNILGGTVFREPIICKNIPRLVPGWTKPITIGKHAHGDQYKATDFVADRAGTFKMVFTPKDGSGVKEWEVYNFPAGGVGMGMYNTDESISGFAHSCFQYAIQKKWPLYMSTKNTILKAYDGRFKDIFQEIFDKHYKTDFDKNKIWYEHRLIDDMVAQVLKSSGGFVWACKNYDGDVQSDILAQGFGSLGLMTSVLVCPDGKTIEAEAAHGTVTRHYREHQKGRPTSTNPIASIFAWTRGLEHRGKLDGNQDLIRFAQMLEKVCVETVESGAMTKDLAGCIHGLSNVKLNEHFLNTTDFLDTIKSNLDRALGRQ
Isocitrate dehydrogenase [NADP] cytoplasmic (Homo sapiens, UniProt O75874, R132C), sequence (O75874 2-414 R132C limits assumed): as the sequence (O75874 2-414 R132H limits assumed) above, with H131C counted along it
Isocitrate dehydrogenase [NADP] cytoplasmic (Homo sapiens, UniProt O75874), sequence (O75874 whole entry): as the sequence (O75874 whole entry R132H) above, with H132R counted along it
Isocitrate dehydrogenase [NADP], mitochondrial (Homo sapiens, UniProt P48735, R140Q), sequence (P48735 40-452 R140Q limits assumed): as the sequence (P48735 40-452 R172K limits assumed) above, with R101Q, K133R counted along it

pIC50 [1]: 6.81 | pIC50 [2]: 6.94
Structure (SMILES): C=CC(=O)Nc1cc(Nc2ccc([C@H](C)Nc3ncc(F)c(N4C(=O)OC[C@@H]4C(C)C)n3)cc2)ccc1N(C)C

pIC50 [1]: 6.69 | pIC50 [2]: 6.54
Structure (SMILES): C=CC(=O)Nc1cc(Nc2ccc([C@H](C)Nc3ncc(F)c(N4C(=O)OC[C@@H]4C(C)C)n3)cc2)ccc1N1CCOCC1

pIC50 [1]: 7.06 | pIC50 [2]: 6.06
Structure (SMILES): C=CS(=O)(=O)Nc1ccc(Nc2ccc([C@H](C)Nc3ncc(F)c(N4C(=O)OC[C@@H]4C(C)C)n3)cc2)cc1C

pIC50 [1]: 7.26 | pIC50 [2]: 5.32
Structure (SMILES): C=CS(=O)(=O)Nc1ccc(Nc2ccc([C@H](C)Nc3ncc(F)c(N4C(=O)OC[C@@H]4C(C)C)n3)cc2)cc1OC

pIC50 [1]: 6.61 | pIC50 [2]: 6.06
Structure (SMILES): C=CS(=O)(=O)Nc1ccc(Nc2ccc([C@H](C)Nc3ncc(F)c(N4C(=O)OC[C@@H]4C(C)C)n3)cc2)cc1N1CCN(CC)CC1

pIC50 [1]: 8.23 | pIC50 [2]: 7.35
Structure (SMILES): C=CS(=O)(=O)Nc1ccc(Nc2ccc([C@H](C)Nc3ncc(F)c(N4C(=O)OC[C@@H]4C(C)C)n3)cc2)cc1F

pIC50 [1]: < 5.00 | pIC50 [2]: 5.00
Structure (SMILES): CC(C)[C@H]1COC(=O)N1c1nc(N[C@@H](C)c2ccc(Nc3ccc(NC(=O)CCl)c(N4CCOCC4)c3)cc2)ncc1F

Continued, molecule first:

Structure (SMILES): C=CS(=O)(=O)NC1CCN(c2ccc([C@H](C)Nc3ncc(F)c(N4C(=O)OC[C@@H]4C(C)C)n3)cc2)CC1
pIC50 [1]: 8.33 | pIC50 [2]: 7.55 | pKi [3]: 7.43 | Kinact [4]: 0.015 min⁻¹ | Ratio [5]: 0.007 µM⁻¹ s⁻¹ | pIC50 [6]: < 5.00 | pIC50 [7]: 6.86 | pIC50 [8]: < 5.00 | pIC50 [9]: < 5.00 | pIC50 [10]: < 5.00 | Activity [11]: Active | Activity [12]: Active | t1/2 [13]: 9.6 min | Tmax [14]: 1.8 min | Cmax [15]: 199.67 ng/mL | AUCt [16]: 267.61 ng·h/mL | Vd [17]: 5.39 L/kg | half-life [18]: 18 min | Tmax [19]: 15 min | Cmax [20]: 88.1 ng/mL | AUCt [21]: 36.31 ng·h/mL | Vz [22]: 118.878 L/kg | CL/F [23]: 260 L/h/kg | F [24]: 9.26% | inhibition (INH) [25]: >85%

Structure (SMILES): CCS(=O)(=O)NC1CCN(c2ccc([C@H](C)Nc3ncc(C#N)cn3)cc2)CC1
pIC50 [1]: 5.46

Structure (SMILES): C=CC(=O)NC1CCN(c2ccc([C@H](C)Nc3nccc(N4C(=O)OC[C@@H]4C(C)C)n3)cc2)CC1
pIC50 [1]: 5.19

Structure (SMILES): C=CS(=O)(=O)NC1CCN(c2ccc([C@H](C)Nc3nccc(N4C(=O)OC[C@@H]4C(C)C)n3)cc2)CC1
pIC50 [1]: 6.72 | pIC50 [2]: 7.43

Structure (SMILES): C=CS(=O)(=O)Nc1ccc(Nc2ccc([C@H](C)Nc3ccc(C#N)cn3)cc2)cc1N(C)C
pIC50 [1]: 5.20

Structure (SMILES): C=CC(=O)Nc1ccc(Nc2ccc([C@H](C)Nc3ccc(C#N)cn3)cc2)cc1N(C)C
pIC50 [1]: 5.21

Structure (SMILES): C=CC(=O)Nc1ccc(Nc2ccc([C@H](C)Nc3nccc(N4C(=O)OC[C@@H]4C(C)C)n3)cc2)cc1N1CCN(CC)CC1
pIC50 [1]: 6.05

Structure (SMILES): C=CC(=O)NC1CCN(c2ccc([C@H](C)Nc3ncc(F)c(N4C(=O)OC[C@@H]4C(C)C)n3)cc2)CC1
pIC50 [1]: 6.73 | pIC50 [2]: 6.34

Structure (SMILES): CCS(=O)(=O)NC1CCN(c2ccc([C@H](C)Nc3ncc(F)c(N4C(=O)OC[C@@H]4C(C)C)n3)cc2)CC1
pIC50 [1]: 6.84 | pIC50 [2]: 5.83

Structure (SMILES): C=CS(=O)(=O)NC1CCCN(c2ccc([C@H](C)Nc3ncc(F)c(N4C(=O)OC[C@@H]4C(C)C)n3)cc2)C1 (stereo partly specified)
pIC50 [1]: 6.92 | pIC50 [2]: 6.67

Structure (SMILES): CCS(=O)(=O)NC1CCN(c2ccc([C@H](C)Nc3nccc(N4C(=O)OC[C@@H]4C(C)C)n3)cc2)CC1
pIC50 [1]: 6.27

Structure (SMILES): C=CS(=O)(=O)N1CCC(Nc2ccc([C@H](C)Nc3ncc(F)c(N4C(=O)OC[C@@H]4C(C)C)n3)cc2)CC1
pIC50 [1]: 7.38 | pIC50 [2]: 6.89

Structure (SMILES): CCC(=O)Nc1cc(-c2ccc([C@H](C)Nc3ncc(F)c(N4C(=O)OC[C@@H]4C(C)C)n3)cc2)ccc1N(C)C
pIC50 [1]: 6.13
